Reference: US6737383B1, “Herbicidal oxadiazolidines” (priority 1999, dated 2004)

Key:
bedstraw = assay: Test B pre/postemergence bedstraw; format: in vivo, Galium aparine
Method in brief: (§1)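 Test chemicals in a non-phytotoxic solvent mixture with surfactant were sprayed preemergence onto planted seeds and postemergence onto plants 2 to 18 cm tall (1- to 4-leaf stage). After twelve to sixteen days in a greenhouse, injury was visually rated against untreated controls from 0 (no effect) to 10 (complete control).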

blackgrass = assay: Test B pre/postemergence blackgrass; format: in vivo, Alopecurus myosuroides
Method in brief: as §1

surinam grass = assay: Test B pre/postemergence surinam grass; format: in vivo, Brachiaria decumbens
Method in brief: as §1

cocklebur = assay: Test B pre/postemergence cocklebur; format: in vivo, Xanthium strumarium
Method in brief: as §1

corn = assay: Test B pre/postemergence corn; format: in vivo, Zea mays
Method in brief: as §1

giant foxtail = assay: Test B pre/postemergence giant foxtail; format: in vivo, Setaria faberii
Method in brief: as §1

morningglory = assay: Test B pre/postemergence morningglory; format: in vivo, Ipomoea hederacea
Method in brief: as §1

pigweed = assay: Test B pre/postemergence pigweed; format: in vivo, Amaranthus retroflexus
Method in brief: as §1

rape = assay: Test B pre/postemergence rape; format: in vivo, Brassica napus
Method in brief: as §1

sugar beet = assay: Test B pre/postemergence sugar beet; format: in vivo, Beta vulgaris
Method in brief: as §1

velvetleaf = assay: Test B pre/postemergence velvetleaf; format: in vivo, Abutilon theophrasti
Method in brief: as §1

purple nutsedge = assay: Test B pre/postemergence purple nutsedge; format: in vivo, Cyperus rotundus
Method in brief: as §1

rice = assay: Test B flood test rice; format: in vivo, Oryza sativa
Method in brief: (§2)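 Read-out is a visual response score from 0 (no effect) to 10 (complete control), assigned by comparison with untreated controls. Treatment was applied at the 2-leaf stage, and plants stayed in the greenhouse for twelve to sixteen days before scoring.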

duck salad = assay: Test B flood test duck salad; format: in vivo, Heteranthera limosa
Method in brief: as §2

bamyardgrass = assay: Test B flood test barnyardgrass; format: in vivo, Echinochloa crus-galli
Method in brief: as §2

[1] = Preemergence, Rate 62 g/ha, scale of 0 to 10 where 0 is no effect and 10 is complete control
[2] = Preemergence, Rate 125 g/ha, 0 is no effect, 10 is complete control
[3] = Preemergence, Rate 250 g/ha, scale 0 to 10, 0 is no effect, 10 is complete control
[4] = Rate 62 g/ha, Postemergence, scale of 0 to 10 where 0 is no effect and 10 is complete control
[5] = Rate 125 g/ha, Postemergence, scale 0 to 10
[6] = Rate 500 g/ha, Postemergence, scale 0 to 10
[7] = Preemergence, Rate 500 g/ha, scale 0 to 10 (0 no effect, 10 complete control)
[8] = Rate 62 g/ha, headed Pre-emergence (flood test species), scale 0 to 10 (0 no effect, 10 complete control)
[9] = Rate 125 g/ha, Pre-emergence, flood test species, scale 0 to 10 where 0 is no effect and 10 is complete control
[10] = Rate 250 g/ha, Pre-emergence, flood-test species, scale 0 to 10, 0 is no effect, 10 is complete control
[11] = Rate 500 g/ha, headed Pre-emergence (flood test species), scale 0 to 10 (0 no effect, 10 complete control)

COc1nc(OC)nc(N(C(=O)n2oc(=O)n(-c3ccccc3C)c2=O)C(C)C)n1 [Compound 181]
0: Bedstraw plant response rating (bedstraw; [1]) | Bedstraw plant response rating (0 to 10 scale) (bedstraw; [2]) | Bedstraw plant response rating (bedstraw; [3]) | Bedstraw plant response rating (bedstraw; [4]) | Bedstraw plant response rating (bedstraw; [5]) | Plant response rating (0 to 10; 0 is no effect, 10 is complete control), Bedstraw (bedstraw; Rate 250 g/ha, Postemergence) | Bedstraw plant response rating (bedstraw; [6]) | Blackgrass plant response rating (blackgrass; [1]) | Blackgrass plant response rating (0 to 10 scale) (blackgrass; [2]) | Blackgrass plant response rating (blackgrass; [3]) | Blackgrass plant response rating (blackgrass; [7]) | Blackgrass plant response rating (blackgrass; [4]) | Blackgrass plant response rating (blackgrass; [5]) | Plant response rating (0 to 10; 0 is no effect, 10 is complete control), Blackgrass (blackgrass; Rate 250 g/ha, Postemergence) | Blackgrass plant response rating (blackgrass; [6]) | B. signalgrass plant response rating (surinam grass; [1]) | B. signalgrass plant response rating (0 to 10 scale) (surinam grass; [2]) | B. signalgrass plant response rating (surinam grass; [3]) | B. signalgrass plant response rating (surinam grass; [7]) | B. signalgrass plant response rating (surinam grass; [4]) | B. signalgrass plant response rating (surinam grass; Rate 125 g/ha, Postemergence, scale 0 (no effect) to 10 (complete control)) | Plant response rating, B. signalgrass (surinam grass; Rate 250 g/ha, Postemergence, scale 0 to 10, 0 is no effect, 10 is complete control) | B. signalgrass plant response rating (surinam grass; Rate 500 g/ha, Postemergence, scale 0 to 10, 0 no effect, 10 complete control) | Cocklebur plant response rating (cocklebur; [1]) | Cocklebur plant response rating (0 to 10 scale) (cocklebur; [2]) | Cocklebur plant response rating (cocklebur; [3]) | Cocklebur plant response rating (cocklebur; [7]) | Cocklebur plant response rating (cocklebur; [4]) | Cocklebur plant response rating (cocklebur; [5]) | Plant response rating (0 to 10; 0 is no effect, 10 is complete control), Cocklebur (cocklebur; Rate 250 g/ha, Postemergence) | Cocklebur plant response rating (cocklebur; [6]) | Corn plant response rating (corn; [1]) | Corn plant response rating (0 to 10 scale) (corn; [2]) | Corn plant response rating (corn; [3]) | Corn plant response rating (corn; [7]) | Corn plant response rating (corn; [4]) | Corn plant response rating (corn; [5]) | Plant response rating (0 to 10; 0 is no effect, 10 is complete control), Corn (corn; Rate 250 g/ha, Postemergence) | Corn plant response rating (corn; [6]) | Giant foxtail plant response rating (giant foxtail; [1]) | Giant foxtail plant response rating (0 to 10 scale) (giant foxtail; [2]) | Giant foxtail plant response rating (giant foxtail; [3]) | Giant foxtail plant response rating (giant foxtail; [7]) | Giant foxtail plant response rating (giant foxtail; [4]) | Giant foxtail plant response rating (giant foxtail; [5]) | Plant response rating (0 to 10; 0 is no effect, 10 is complete control), Giant foxtail (giant foxtail; Rate 250 g/ha, Postemergence) | Giant foxtail plant response rating (giant foxtail; [6]) | Morningglory plant response rating (morningglory; [1]) | Morningglory plant response rating (0 to 10 scale) (morningglory; [2]) | Morningglory plant response rating (morningglory; [3]) | Morningglory plant response rating (morningglory; [7]) | Morningglory plant response rating (morningglory; [4]) | Morningglory plant response rating (morningglory; [5]) | Plant response rating (0 to 10; 0 is no effect, 10 is complete control), Morningglory (morningglory; Rate 250 g/ha, Postemergence) | Morningglory plant response rating (morningglory; [6]) | Redroot pigweed plant response rating (pigweed; [1]) | Redroot pigweed plant response rating (0 to 10 scale) (pigweed; [2]) | Redroot pigweed plant response rating (pigweed; [3]) | Redroot pigweed plant response rating (pigweed; [7]) | Redroot pigweed plant response rating (pigweed; [4]) | Redroot pigweed plant response rating (pigweed; [5]) | Plant response rating (0 to 10; 0 is no effect, 10 is complete control), Redroot pigweed (pigweed; Rate 250 g/ha, Postemergence) | Redroot pigweed plant response rating (pigweed; [6]) | Rape plant response rating (rape; [1]) | Rape plant response rating (0 to 10 scale) (rape; [2]) | Rape plant response rating (rape; [3]) | Rape plant response rating (rape; [7]) | Rape plant response rating (rape; [4]) | Rape plant response rating (rape; [5]) | Plant response rating (0 to 10; 0 is no effect, 10 is complete control), Rape (rape; Rate 250 g/ha, Postemergence) | Rape plant response rating (rape; [6]) | Sugarbeets plant response rating (sugar beet; [1]) | Sugarbeets plant response rating (0 to 10 scale) (sugar beet; [2]) | Sugarbeets plant response rating (sugar beet; [3]) | Sugarbeets plant response rating (sugar beet; [7]) | Sugarbeets plant response rating (sugar beet; [4]) | Sugarbeets plant response rating (sugar beet; [5]) | Plant response rating (0 to 10; 0 is no effect, 10 is complete control), Sugarbeets (sugar beet; Rate 250 g/ha, Postemergence) | Sugarbeets plant response rating (sugar beet; [6]) | Velvetleaf plant response rating (velvetleaf; [1]) | Velvetleaf plant response rating (velvetleaf; [3]) | Velvetleaf plant response rating (velvetleaf; [7]) | Velvetleaf plant response rating (velvetleaf; [5]) | Plant response rating (0 to 10; 0 is no effect, 10 is complete control), Velvetleaf (velvetleaf; Rate 250 g/ha, Postemergence) | Velvetleaf plant response rating (velvetleaf; [6]) | Nutsedge plant response rating (purple nutsedge; [1]) | Nutsedge plant response rating (0 to 10 scale) (purple nutsedge; [2]) | Nutsedge plant response rating (purple nutsedge; [3]) | Nutsedge plant response rating (purple nutsedge; [7]) | Nutsedge plant response rating (purple nutsedge; [4]) | Nutsedge plant response rating (purple nutsedge; [5]) | Plant response rating (0 to 10; 0 is no effect, 10 is complete control), Nutsedge (purple nutsedge; Rate 250 g/ha, Postemergence) | Nutsedge plant response rating (purple nutsedge; [6]) | Rice plant response rating (rice; [8]) | Rice plant response rating (rice; [9]) | Rice plant response rating (rice; [10]) | Plant response rating, Rice (rice; [11]) | Ducksalad plant response rating (duck salad; [8]) | Ducksalad plant response rating (duck salad; [9]) | Ducksalad plant response rating (duck salad; [10]) | Plant response rating, Ducksalad (duck salad; [11]) | Barnyardgrass plant response rating (bamyardgrass; [8]) | Barnyardgrass plant response rating (bamyardgrass; [9]) | Barnyardgrass plant response rating (bamyardgrass; [10]) | Plant response rating, Barnyardgrass (bamyardgrass; [11])
